Assay results: patent US20210379094A1, “METHOD FOR REDUCING DRUG-INDUCED NEPHROTOXICITY” (Yissum Research Development Company of the Hebrew …, priority 2019, published 2021)
Values joined by “and” are separate entries in the source; they are usually repeats but may differ in a detail not shown here. Equal values may be shown once.

Tests used:
Format in all cases: cell-based, human
HK-2 organoids [1] = test: Real-time oxygen uptake / time to onset in perfused organoid bioreactor; conditions: for Oxygen uptake drop: after 33 hours continuous perfusion, 12.5 μM Cyclosporine A, 32 μM Cisplatin, 32 mM Gentamicin
Protocol: Polydimethylsiloxane (PDMS) microwell inserts were sterilized with 70% EtOH and 30-min exposure to UV light prior to cell seeding. Kidney cells were trypsinized, counted, and centrifuged at 300×g for 5 min at 4° C. […] Then, 1.35 μl of Matrigel® suspension containing cells and oxygen-sensing beads was seeded in each well using […] M P10M (Gilson, UK). The inoculated microwell insert was then incubated for 30 min at 37° C. to polymerize the gel. Following polymerization, the insert was immersed in 3 ml of cell culture medium and incubated overnight at 37° C. prior to being sealed in the bioreactor housing. Bioreactors were then placed in a climate control chamber on an IX81 fluorescence microscope (Olympus, Japan). Bioreactors were continuously perfused with cell culture medium noted above supplemented with 10 mM HEPES and 1% DMSO at a flow rate of 5 μL/min. Drug induction started upon metabolic stabilization. Stabilization was assessed by daily measurements of oxygen and metabolites.
Real-time oxygen measurements were performed optically using on-chip lifetime-based luminescence quenching (LBLQ). […] Oxygen acts as a quencher, leading to a decrease in decay time and signal intensity with increasing concentration. We chose to measure decay time, rather than signal intensity, as it is not sensitive to changes in probe concentration or excitation intensity over the course of the experiment. […] To accurately measure decay time, we chose phase modulation in which sinusoidal amplitude-modulated light is shifted in phase due to oxygen quenching. […] Measurements were carried out by averaging five consecutive 4-s exposures. Measurements were taken every 15 min.
Bioreactors were perfused with different concentrations of compounds dissolved in culture medium. […] TC50 concentrations were determined using MATLAB by sigmoidal curve fitting. […] Time to onset was analyzed by MATLAB based on LPF and trend assessment.

HK-2 organoids [2] = test: Metabolic flux analysis (glucose, lactate, glutamine, oxygen) of perfused organoids; conditions: for ATP production drop / Lipogenesis increase / glycolysis drop: 31 hours exposure to sub-toxic concentration (12.5 μM Cyclosporine A, 32 μM Cisplatin, 32 mM Gentamicin)
Protocol: Amperometric glucose and lactate sensors were purchased from Innovative Sensor Technology (IST, Switzerland). […] Both sensors produce H2O2 in amounts proportional to the measured metabolite, which is detected with platinum electrodes under polarized condition. […] Measurements were carried out and calibrated to sensitivity decrease by on-chip potentiostat (IST, Switzerland). Glucose uptake, oxygen uptake, and lactate production rates were measured by calculating the change in metabolite concentration between the bioreactor in- and outflow as a function of perfusion rate and cell number. Metabolic rates were calculated assuming negligible contribution to oxygen uptake by fatty acid oxidation and enzymatic activity. […] Based on these assumptions, oxidative phosphorylation flux was calculated by dividing the oxygen uptake rate by six. It was estimated that 32 ATP molecules were generated by complete oxidation of one molecule of glucose. Glycolysis flux was calculated by dividing lactate production rate by two, with maximal rate defined by glucose uptake rate minus the oxidative phosphorylation flux. ATP production in glycolysis was estimated to be two molecules per molecule of glucose. It was assumed that any glucose left over was directed toward lipogenesis, because the contribution of pentose phosphate pathway in non-proliferating cells is minor. […] ATP production in glutaminolysis was estimated to be three molecules per molecule of lactate generated.

[3] = test system: HK-2 proximal tubule cells; test: Glucose accumulation assay (2-NDBG); conditions: for 2-NBDG fluorescence: concentrations a thousand-fold under the threshold of cellular damage
Protocol: To monitor glucose uptake in cells, a fluorescent analog of glucose 2-(N-(7-Nitrobenz-2-oxa-1,3-diazol-4-yl) Amino)-2-Deoxyglucose (2-NDBG), (Invitrogen, CA, USA) was used. After overnight drug exposure, the medium was removed and replaced with Dulbecco's Phosphate Buffered Saline (Sigma, USA) with 17 mM and 6 mM of 2-NDBG to match glucose concentration of HK-2 and RPTEC culture medium respectively, incubated for 1 hour at 37° C., 5% CO2 before imaging. 2-NDBG is taken up in mammalian cells by GLUT-2, if its activity or shuttling is disturbed, 2-NDBG will accumulate in the cells, showing higher green intensity.

HK-2 [4] = test: Reduction of toxicity (rescue) experiment with glucose transport inhibitors, LIVE/DEAD viability; conditions: for cell viability / cell death: cultures treated with nephrotoxic drug plus inhibitor vs drug alone
Protocol: (§1) Empagliflozin (5 μM) a potent SGLT2 inhibitor, phloretin (1 mM) inhibits the apicobasal shuttling of the GLUT2, phlorizin (200 μM) is a mild inhibitor of SGLT1 and SGLT2. When all three inhibitors were used together, the mix was referred to as a cocktail. All experiments were performed on a 96 well plate, in triplicates with controls with no drugs, or inhibitors alone. First, cells were incubated for 1 hour with inhibitors alone and then drugs were added with inhibitors for 24 hours for LIVE DEAD assay or 48 hours for Lipid accumulation (LipidTox Assay). Cell viability was determined using LIVE/DEAD Cytotoxicity kit (Molecular Probes, USA) according to manufacturer directions. Briefly, cultures were incubated for 30 min with 2 μM calcein AM and 4 μM ethidium homodimer-1. Live cells were positive for green fluorescence due to hydrolysis of the acetoxymethyl ester group by intracellular esterases. Dead cells were positive for red fluorescence due to ethidium homodimer-1 binding intracellular DNA, possible in […]. Cellular viability was expressed as live over dead ratio and normalized based on negative (DMSO/DDW/PBS) controls. Fluorescence micrographs were analyzed for total fluorescence using ImageJ for 9 repeats for each sample. Error bars indicate ±SEM.
(§2) After staining, plates were mounted on the fluorescent microscope for quantification. Rescue was achieved when significant percentage of live cells and/or a reduced amounts of dead cells was observed as compared with cells treated with the drug only.

HK-2 [5] = test: Reduction of toxicity (rescue) experiment with glucose transport inhibitors, lipid accumulation (LipidTox); conditions: for lipotoxicity: cultures treated with the three nephrotoxic compounds
Protocol: Quantification of lipid accumulation was performed using HCS LipidTOX™ Phospholipidosis and Steatosis Detection Kit (ThermoFisher). Briefly, HK-2 and RPTEC cells were incubated with different concentrations of compounds dissolved in culture medium and 1× Phospholipidosis Detection Reagent for 48 h, subsequently fixed in 4% PFA. Cells were then stained with 1× Green LipidTOX™ for neutral lipids for 45 min and counterstained with 1 μg/mL Hoechst 33258. Staining intensity was normalized to number of Hoechst 33258 positive nuclei.
as §1, §2

[6] = organoids under continuous perfusion

Row | Compound | Oxygen uptake drop (HK-2 organoids [1]) [%] | ATP production drop (HK-2 organoids [2]) [%] | Lipogenesis increase (HK-2 organoids [2]) | glycolysis drop (HK-2 organoids [2]) | 2-NBDG fluorescence [3] | cell viability / cell death (HK-2 [4]) | lipotoxicity (HK-2 [5]) | other results
1 | N.N.[Cl][Pt][Cl] [Cisplatin] | 36 | 53 | 57.6% and 57% | 98.4% and 98% | doubles | – | – | Time to onset (TTO) of response (HK-2 organoids [1]; HK-2 organoids, increasing concentrations, dose-dependent decrease): 13 to 22 h; time of induced damage following exposure (HK-2 organoids [1]; [6]): at least 14 hours; Overall glutamine uptake (HK-2 organoids [2]; during exposure): remained constant
2 | Gentamicin | 10 | 29 | 438% | 65% | doubles | – | – | oxygen response upon perfusion (HK-2 organoids [1]; [6]): acute jump in oxygen uptake within an hour after exposure; viability at sub-toxic concentration (HK-2 organoids [1]; sub-toxic concentration used for flux analysis): > 95%; lactate over glucose ratio drop (HK-2 organoids [2]; 32 mM Gentamicin, after 10 h exposure): 85%; glucose uptake increase (HK-2 organoids [2]; after 31 hours): +196%; lactate release decrease (HK-2 organoids [2]; after 31 hours): −65.2%; Glutamine uptake change (HK-2 organoids [2]; at 31 hours): +14.1%; Glutamine uptake change (HK-2 organoids [2]; at approximately 16 hours): +76%; shift of organoid metabolism (HK-2 organoids [2]; bioreactor studies): significantly shift proximal tubular organoid metabolism towards lipogenesis; Relative 2-NDBG accumulation, increase in glucose content ([3]; HK2 cells, sub-toxic 15 h exposure): 2 fold
3 | O=C(CCc1ccc(O)cc1)c1c(O)cc(O)cc1O [Phloretin] | – | – | – | – | – | restores cell viability | significantly alleviates lipotoxicity | –
4 | OC[C@H]1O[C@@H](c2ccc(Cl)c(Cc3ccc(O[C@H]4CCOC4)cc3)c2)[C@H](O)[C@@H](O)[C@@H]1O [Empagliflozin] | – | – | – | – | – | restores cell viability | significantly alleviates lipotoxicity | –
5 | O=C(CCc1ccc(O)cc1)c1c(O)cc(O)cc1O[C@@H]1O[C@H](CO)[C@@H](O)[C@H](O)[C@H]1O [Phlorizin] | – | – | – | – | – | restores cell viability | significantly alleviates lipotoxicity | increase in cell viability (HK-2 [4]; CsA treated cultures, compared to cells treated with CsA alone): 2 fold; decrease in phospholipids content (HK-2 [5]; CsA treated cultures, compared to CsA alone): 2 fold
